Where two headings read alike, the source gives them in different places.
Key:
[1] = system: barnyardgrass; assay: Test B pre-/postemergence herbicide test; assay type: in vivo, Echinochloa crus-galli; conditions: Echinochloa crus-galli; for pest or weed control at 125 g/ha: 125 g ai/ha; for pest or weed control at 500 g/ha: 500 g ai/ha
Procedure, shortened: (§1)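 Flooded paddy rice and barnyardgrass were treated at the 2-leaf stage; upland plantings received compound either on sown seed or on 1- to 4-leaf seedlings. All were kept 13–15 days in a greenhouse and scored visually, 0–100, relative to untreated plants.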

[2] = system: Surinam grass; assay: Test B pre-/postemergence herbicide test; assay type: in vivo, Urochloa decumbens; conditions: Urochloa decumbens; for pest or weed control at 125 g/ha: 125 g ai/ha; for pest or weed control at 500 g/ha: 500 g ai/ha
Procedure, shortened: (§2)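 Herbicidal effect was judged by eye on a 0–100 scale after plants stood 13 to 15 days in the greenhouse following pre- or postemergence treatment with surfactant-containing formulations.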

[3] = system: cocklebur; assay: Test B pre-/postemergence herbicide test; assay type: in vivo, Xanthium strumarium; conditions: Xanthium strumarium; for pest or weed control at 125 g/ha: 125 g ai/ha; for pest or weed control at 500 g/ha: 500 g ai/ha
Procedure, shortened: as §1

[4] = system: corn; assay: Test B pre-/postemergence herbicide test; assay type: in vivo, Zea mays; conditions: Zea mays; for plant injury at 125 g/ha: 125 g ai/ha
Procedure, shortened: as §2

[5] = system: large crabgrass; assay: Test B pre-/postemergence herbicide test; assay type: in vivo, Digitaria sanguinalis; conditions: Digitaria sanguinalis; for pest or weed control at 125 g/ha: 125 g ai/ha; for pest or weed control at 500 g/ha: 500 g ai/ha
Procedure, shortened: as §2

[6] = system: giant foxtail; assay: Test B pre-/postemergence herbicide test; assay type: in vivo, Setaria faberi; conditions: Setaria faberi, 336 h; for pest or weed control at 125 g/ha: 125 g ai/ha; for pest or weed control at 500 g/ha: 500 g ai/ha
Procedure, shortened: as §2

[7] = system: lambsquarters; assay: Test B pre-/postemergence herbicide test; assay type: in vivo, Chenopodium album; conditions: Chenopodium album, 336 h; for pest or weed control at 125 g/ha: 125 g ai/ha; for pest or weed control at 500 g/ha: 500 g ai/ha
Procedure, shortened: as §2

[8] = system: pigweed; assay: Test B pre-/postemergence herbicide test; assay type: in vivo, Amaranthus retroflexus; conditions: Amaranthus retroflexus, 336 h; for pest or weed control at 125 g/ha: 125 g ai/ha; for pest or weed control at 500 g/ha: 500 g ai/ha
Procedure, shortened: as §2

[9] = system: velvetleaf; assay: Test B pre-/postemergence herbicide test; assay type: in vivo, Abutilon theophrasti; conditions: Abutilon theophrasti, 336 h; for pest or weed control at 125 g/ha: 125 g ai/ha; for pest or weed control at 500 g/ha: 500 g ai/ha
Procedure, shortened: as §2

[10] = system: blackgrass; assay: Test B postemergence herbicide test; assay type: in vivo, Alopecurus myosuroides; conditions: Alopecurus myosuroides, post-emergence, 336 h, postemergence, visual rating, scale 0 (no effect) to 100 (complete control), read-out: Blackgrass plant response rating
Procedure, shortened: (§3)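 After treating 2-leaf paddy plants or 2–18 cm postemergence plants (1 to 4 leaves) with formulated chemical, researchers kept them in a greenhouse for 13–15 days. Effects were judged visually versus controls: 0 indicates none, 100 total control.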

[11] = system: wheat; assay: Test B postemergence herbicide test; assay type: in vivo, Triticum aestivum; conditions: Triticum aestivum, post-emergence, 336 h, postemergence, read-out: Wheat plant response rating
Procedure, shortened: (§4)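 Treated at 2-leaf (paddy) or 1–4-leaf, 2–18 cm (postemergence); greenhouse 13–15 d; visual score vs control, 0 none to 100 complete control; dash = not tested.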

[12] = system: wild oat; assay: Test B postemergence herbicide test; assay type: in vivo, Avena fatua; conditions: Avena fatua, post-emergence, 336 h, postemergence, read-out: Oat, Wild plant response rating
Procedure, shortened: as §4

[13] = system: rice; assay: Test B flooded paddy test; assay type: in vivo, Oryza sativa; conditions: Oryza sativa, 336 h, 1000 g ai/ha, scale 0 to 100 (0 no effect, 100 complete control), read-out: Rice plant response rating
Procedure, shortened: as §4

[14] = system: small flower umbrella sedge; assay: Test B flooded paddy test; assay type: in vivo, Cyperus difformis; conditions: Cyperus difformis, 336 h, 1000 g ai/ha, scale 0 to 100 (0 no effect, 100 complete control), read-out: Sedge, Umbrella plant response rating
Procedure, shortened: as §3

[15] = system: ducksalad; assay: Test B flooded paddy test; assay type: in vivo, Heteranthera limosa; conditions: Heteranthera limosa, 336 h, 1000 g ai/ha, scale 0 to 100 (0 no effect, 100 complete control), read-out: Ducksalad plant response rating
Procedure, shortened: as §3

[16] = post-emergence, postemergence, visual rating, scale 0 (no effect) to 100 (complete control), read-out: Barnyardgrass plant response rating
[17] = post-emergence, postemergence, visual rating, scale 0 (no effect) to 100 (complete control), read-out: Cocklebur plant response rating
[18] = 125 g ai/ha, visual rating, scale 0 (no effect) to 100 (complete control)
[19] = 500 g ai/ha, scale 0 to 100, 0 is no effect, 100 is complete control

Question: What does the source list for `CCNC(=O)c1cc(NC(=O)c2cn(C(C)(C)C)nc2CC)ccc1F` [Compound 241, 1-(1,1-dimethylethyl)-3-ethyl-N-[3-[(ethylamino)carbonyl]-4-fluorophenyl]-1H-pyrazole-4-carboxamide]?
Answer: pest or weed control at 125 g/ha [1, 16]: 0%; pest or weed control at 500 g/ha [1, 16]: 0%; pest or weed control at 125 g/ha ([1]; pre-emergence, 0 = no effect, 100 = complete control, read-out: Barnyardgrass plant response rating (0 to 100 scale)): 0%; pest or weed control at 500 g/ha ([1]; pre-emergence, visual rating, 0 = no effect, 100 = complete control, read-out: Plant response rating, Barnyardgrass): 80%; pest or weed control at 125 g/ha ([2]; post-emergence, postemergence, visual rating, scale 0 (no effect) to 100 (complete control), read-out: Surinam Grass plant response rating): 10%; pest or weed control at 500 g/ha ([2]; post-emergence, postemergence, scale 0 to 100, 0 is no effect, 100 is complete control, read-out: Surinam Grass plant response rating): 20%; pest or weed control at 125 g/ha ([2]; pre-emergence, 0 = no effect, 100 = complete control, read-out: Surinam Grass plant response rating (0 to 100 scale)): 10%; pest or weed control at 500 g/ha ([2]; pre-emergence, visual rating, 0 = no effect, 100 = complete control, read-out: Plant response rating, Surinam Grass): 90%; pest or weed control at 125 g/ha [3, 17]: 20%; pest or weed control at 500 g/ha [3, 17]: 30%; pest or weed control at 125 g/ha ([3]; pre-emergence, 0 = no effect, 100 = complete control, read-out: Cocklebur plant response rating (0 to 100 scale)): 0%; pest or weed control at 500 g/ha ([3]; pre-emergence, visual rating, 0 = no effect, 100 = complete control, read-out: Plant response rating, Cocklebur): 0%; plant injury at 125 g/ha ([4]; post-emergence, postemergence, visual rating, scale 0 (no effect) to 100 (complete control), read-out: Corn plant response rating): 0%; plant injury at 500 g/ha ([4]; post-emergence, postemergence, 500 g ai/ha, scale 0 to 100, 0 is no effect, 100 is complete control, read-out: Corn plant response rating): 10%; plant injury at 125 g/ha ([4]; pre-emergence, 0 = no effect, 100 = complete control, read-out: Corn plant response rating (0 to 100 scale)): 0%; Corn plant response rating (crop injury, 0 = no effect, 100 = complete kill) at 500 g/ha ([4]; pre-emergence, 500 g ai/ha, visual rating, 0 = no effect, 100 = complete control): 30%; pest or weed control at 125 g/ha ([5]; post-emergence, postemergence, visual rating, scale 0 (no effect) to 100 (complete control), read-out: Crabgrass, Large plant response rating): 0%; pest or weed control at 500 g/ha ([5]; post-emergence, postemergence, scale 0 to 100, 0 is no effect, 100 is complete control, read-out: Crabgrass, Large plant response rating): 10%; pest or weed control at 125 g/ha ([5]; pre-emergence, 0 = no effect, 100 = complete control, read-out: Crabgrass, Large plant response rating (0 to 100 scale)): 90%; pest or weed control at 500 g/ha ([5]; pre-emergence, visual rating, 0 = no effect, 100 = complete control, read-out: Plant response rating, Crabgrass, Large): 100%; pest or weed control at 125 g/ha ([6]; post-emergence, postemergence, visual rating, scale 0 (no effect) to 100 (complete control), read-out: Foxtail, Giant plant response rating): 0%; pest or weed control at 500 g/ha ([6]; post-emergence, postemergence, scale 0 to 100, 0 is no effect, 100 is complete control, read-out: Foxtail, Giant plant response rating): 0%; pest or weed control at 125 g/ha ([6]; pre-emergence, 0 = no effect, 100 = complete control, read-out: Foxtail, Giant plant response rating (0 to 100 scale)): 10%; pest or weed control at 500 g/ha ([6]; pre-emergence, visual rating, 0 = no effect, 100 = complete control, read-out: Plant response rating, Foxtail, Giant): 90%; pest or weed control at 125 g/ha ([7]; post-emergence, postemergence, visual rating, scale 0 (no effect) to 100 (complete control), read-out: Lambsquarters plant response rating): 30%; pest or weed control at 500 g/ha ([7]; post-emergence, postemergence, scale 0 to 100, 0 is no effect, 100 is complete control, read-out: Lambsquarters plant response rating): 50%; pest or weed control at 125 g/ha ([7]; pre-emergence, 0 = no effect, 100 = complete control, read-out: Lambsquarters plant response rating (0 to 100 scale)): 80%; pest or weed control at 500 g/ha ([7]; pre-emergence, visual rating, 0 = no effect, 100 = complete control, read-out: Plant response rating, Lambsquarters): 100%; pest or weed control at 125 g/ha ([8]; post-emergence, postemergence, visual rating, scale 0 (no effect) to 100 (complete control), read-out: Pigweed plant response rating): 30%; pest or weed control at 500 g/ha ([8]; post-emergence, postemergence, scale 0 to 100, 0 is no effect, 100 is complete control, read-out: Pigweed plant response rating): 50%; pest or weed control at 125 g/ha ([8]; pre-emergence, 0 = no effect, 100 = complete control, read-out: Pigweed plant response rating (0 to 100 scale)): 100%; pest or weed control at 500 g/ha ([8]; pre-emergence, visual rating, 0 = no effect, 100 = complete control, read-out: Plant response rating, Pigweed): 100%; pest or weed control at 125 g/ha ([9]; post-emergence, postemergence, visual rating, scale 0 (no effect) to 100 (complete control), read-out: Velvetleaf plant response rating): 10%; pest or weed control at 500 g/ha ([9]; post-emergence, postemergence, scale 0 to 100, 0 is no effect, 100 is complete control, read-out: Velvetleaf plant response rating): 10%; pest or weed control at 125 g/ha ([9]; pre-emergence, 0 = no effect, 100 = complete control, read-out: Velvetleaf plant response rating (0 to 100 scale)): 20%; pest or weed control at 500 g/ha ([9]; pre-emergence, visual rating, 0 = no effect, 100 = complete control, read-out: Plant response rating, Velvetleaf): 100%; pest or weed control at 125 g/ha ([10]; 125 g ai/ha): 0%; pest or weed control at 500 g/ha ([10]; 500 g ai/ha): 10%; plant injury at 125 g/ha [11, 18]: 0%; plant injury at 500 g/ha [11, 19]: 10%; pest or weed control at 125 g/ha [12, 18]: 0%; pest or weed control at 500 g/ha [12, 19]: 20%; plant injury at 1000 g/ha [13]: 70%; pest or weed control at 1000 g/ha [14]: 80%; pest or weed control at 1000 g/ha [15]: 70%
